Series [1] concerns the target T1, human β-ureidopropionase (HsβUP) (Homo sapiens, UniProt Q9UBR1).
T1 construct: gene UPB1
T1 sequence (Q9UBR1 1-384): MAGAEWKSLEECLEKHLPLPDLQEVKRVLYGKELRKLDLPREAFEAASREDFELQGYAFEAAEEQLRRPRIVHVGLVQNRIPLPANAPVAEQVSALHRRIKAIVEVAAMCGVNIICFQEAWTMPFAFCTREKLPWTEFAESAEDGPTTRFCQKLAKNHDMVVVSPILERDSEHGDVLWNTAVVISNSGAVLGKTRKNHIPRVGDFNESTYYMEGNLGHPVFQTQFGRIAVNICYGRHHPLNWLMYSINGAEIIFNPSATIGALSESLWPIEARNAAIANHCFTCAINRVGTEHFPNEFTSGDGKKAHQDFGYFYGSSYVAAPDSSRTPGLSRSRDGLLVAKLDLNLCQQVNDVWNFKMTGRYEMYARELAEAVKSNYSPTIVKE
The experiment in a line: discontinuous OPA fluorescence assay of beta-alanine formation from NCβA. The format is biochemical. The source says:
discontinuous OPA fluorescence assay of beta-alanine formation from NCβA on human β-ureidopropionase (HsβUP)

Substrate in series [2]: NC(=O)NCCC(=O)O
The description is as above. The format is biochemical, Homo sapiens. As to conditions: pH 6.5, 37 °C, 100 mM MES, 50 mM NaCl.

Where two headings read alike, the source gives them in different places. Residues, ends and D or L forms follow the SMILES beside them.

A word on the Ki: it is the dissociation constant of the complex between target and ligand, obtained from inhibition or displacement. A higher Ki goes with weaker binding. As to `CC(C)(N)C(=O)O` [2-aminoisobutyric acid], the Ki in series [1] is 151 µM.

For `CC(C)C(=O)O` [isobutyric acid], in series [1], the Ki is 2270 µM. This Ki lies about 15-fold higher than the previous one. In turn, `NCC(=O)NCC(=O)O` [glycyl-glycine] (H-Gly-Gly-OH) displayed a Ki in series [1] (pH 6.5, 37 °C, 100 mM MES, 50 mM NaCl, competitive mode assumed (data best fitted as non-competitive), substrate NCβA) of 237 µM.

B1: human β-ureidopropionase (HsβUP) (Homo sapiens) (protein)
chain: MAGAEWKSLEECLEKHLPLPDLQEVKRVLYGKELRKLDLPREAFEAASREDFELQGYAFEAAEEQLRRPRIVHVGLVQNRIPLPANAPVAEQVSALHRRIKAIVEVAAMCGVNIICFQEAWTMPFAFCTREKLPWTEFAESAEDGPTTRFCQKLAKNHDMVVVSPILERDSEHGDVLWNTAVVISNSGAVLGKTRKNHIPRVGDFNESTYYMEGNLGHPVFQTQFGRIAVNICYGRHHPLNWLMYSINGAEIIFNPSATIGALSESLWPIEARNAAIANHCFTCAINRVGTEHFPNEFTSGDGKKAHQDFGYFYGSSYVAAPDSSRTPGLSRSRDGLLVAKLDLNLCQQVNDVWNFKMTGRYEMYARELAEAVKSNYSPTIVKE
As a reminder, the Km is the concentration of substrate that gives half-maximal velocity. Turning to B1, in series [2], the Michaelis constant (Km) was found to be 101.4 µM.

(Values after article PMC10741476, “The Allosteric Regulation of Β-Ureidopropionase Depends on Fine-Tuned Stability of Active-Site Loops and Subunit Interfaces” (Biomolecules, 2023).)
